Results as given in US20110039700A1, “Method for Improved Utilization of the Production Potential of Transgenic Plants Introduction” (priority 2008, published 2011).

How the values were obtained:
Type in all cases: in vivo
[1] = system: Spodoptera frugiperda; test: Foliar application Spodoptera frugiperda/cotton; settings: 72 h, read-out: Mortality in % after 3^d
Experimental: Individually potted transgenic cotton plants with Lepidoptera resistance and herbicide resistance (Line DP444 BG/RR) are treated with the desired product against the fall army worm (Spodoptera frugiperda).
(§1) After the desired period of time, the mortality in % is determined. Here 100% means that all caterpillars have been killed; 0% means that none of the caterpillars have been killed.

[2] = system: Spodoptera exigua; test: Foliar application Spodoptera exigua/maize; settings: 96 h, read-out: Mortality in % after 4^d
Experimental: Pots containing in each case 5 transgenic maize plants with Lepidoptera, Coleoptera and/or herbicide resistance are treated against the beet army worm (Spodoptera exigua) in 2 replications.
as §1

[3] = system: Spodoptera frugiperda; test: Drench application Spodoptera frugiperda/maize; settings: soil, 96 h, read-out: Mortality in % after 4^d
Experimental: Pots containing in each case 5 transgenic maize plants with Lepidoptera, Coleoptera and/or herbicide resistance are treated by drenching against the fall army worm (Spodoptera frugiperda) in 2 replications.
as §1

SMILES | mortality at 500 ppm [1] [%] | mortality at 100 ppm [2] [%] | mortality at 100 ppm [3] [%]
CCC(C)(C)C(=O)OC1=C(c2ccc(Cl)cc2Cl)C(=O)OC12CCCCC2 [spirodiclofen] | 0 |  | 
Cc1cc(C)c(C2=C(OC(=O)CC(C)(C)C)C3(CCCC3)OC2=O)c(C)c1 [spiromesifen] |  | 0 | 10
